Data on 12 compounds can be found in patent US5506239A, “Carbostyril derivative and platelets aggregation inhibitory agent” (Otsuka Pharmaceutical Co., Ltd., priority 1991, dated 1996).

The target of series [1] is T1, cyclic AMP phosphodiesterase (Homo sapiens, UniProt Q14432).
T1 construct: the resulting supernatant liquid was used as a crude enzyme solution; from tissue; host or cells: human platelets (from platelet-rich plasma)
Kind of series: Cyclic AMP phosphodiesterase inhibitory activity, enzyme from human platelets (Pharmacological Test IV). In kind it is biochemical, man. The note with it: 0.4 μM cyclic AMP substrate, 30° C., 20 minutes, human platelet enzyme; read-out: IC50 (50% phosphodiesterase inhibition concentration).

Series [2] relates to platelets. As to the kind of experiment: Platelets aggregation inhibitory activity (method of Born et al.), ADP-induced, human PRP (Pharmacological Test I). The format is cell-based, man. The conditions noted are these: 7.5 μM ADP, 37° C., read-out: IC50 ADP (50% platelets aggregation inhibition). On the procedure:
(§1) The platelets aggregation inhibitory activity of each test compound was measured by the method of Born et al. [J. Physiol., London, 162, 67 (1962)], using Platelets Aggregation Tracer manufactured by Nikoh Bioscience Co., Ltd.
(§2) 9 volumes of a blood collected from person was mixed with 1 volume of a 3.8% aqueous sodium citrate solution. Part of the mixture was subjected to centrifugation at 1,100 rpm for 10 minutes to obtain a platelet rich plasma (PRP). The remainder of the mixture was also subjected to centrifugation at 3,000 rpm for 10 minutes to obtain a platelet poor plasma (PPP).
(§3) The number of platelets in the PRP was measured using Coulter Counter manufactured by Coulter Electronics Inc. Then, the PRP was diluted with the PPP so that the number of platelets in the dilution became 300,000, whereby a PRP solution was prepared.
(§4) 200 μl of this PRP solution and 2 ml of a solution containing a test compound at a given concentration were placed in an aggregation measurement cell and heated at 37° C. for 1 minute. Thereto was added 20 μl of adenosine diphosphate (ADP manufactured by Sigma Co.) or a collagen suspension (Collagen Reagent manufactured by Horm, Hormon-Chemie, Gmbh) to induce aggregation of platelets. The resulting mixture in the cell was measured for change of transmittance, after which a platelets aggregation curve was prepared. Incidentaly, the concentration of ADP or collagen was selected so that the final Concentration became 7.5 μM or 20 μg/ml.
(§5) Using the platelets aggregation curve, there was calculated a maximum aggregation rate (MAR) of platelets using the followoing formula: […]
(§6) wherein a represents a transmittance of the PRP obtained in the same manner; c represents a transmittance of the PPP obtained in the same manner; and b represents a transmittance at the maximum change, of the PRP solution containng the test compound and the aggregation inducer.
(§7) A MAR was also calculated as above, for the control containing no test compound.
(§8) Using the above two MARs, there were calculated platelets aggregation inhibitions (%) of each test compound at various concentrations using the following formula.
(§9) Inhibition=[1-(MAR of PRP solution containing test compound)/(MAR of PRP
(§10) solution containing no test compound)]×100
(§11) Using the above obtained platelets aggregation inhibitions (%) of each test compound at various concentrations, there was calculated a concentration (IC50) of each test compound for 50% platelets aggregation inhibition.

Series [3] relates to platelets. Kind of series: Platelets aggregation inhibitory activity (method of Born et al.), collagen-induced, human PRP (Pharmacological Test I). The format is cell-based, man. The conditions noted are these: Homo sapiens, Platelet, 20 μg/ml collagen, 37° C., read-out: IC50 Collagen (50% platelets aggregation inhibition). On the procedure: as §1, §2, §3, §4, §5, §6, §7, §8, §9, §10, §11

Series [4] deals with mongrel dogs. The note with it: dog, in vivo, 300 mg/kg. On the procedure:
The heart rate-increasing activity and blood pressure hypotensive activity of each test compound were measured by the following method, using mongrel dogs each weighing 10-20 kg. That is, said dogs were anesthesized by intravenous injection of pentobarbital sodium, then fixed at the back, and tested under artificial respiration. The blood pressures of the dogs were measured by a blood pressure measuring transducer (P23×L manufactured by Gould Statham Instruments, Inc.) via cannula inserted into the femoral artery. The heart rates of the dogs were measured using the pulse wave of the blood pressure of each dog, via a tachometer. The signals of these testng apparatuses were recorded on a thermal pen-type recorder (Recti-Horize 8K manufactured by Nippon Denki-San-ei Sha).
Some of the compounds obtained in the above Examples were used as test compounds. […] Then, the heart rate of each dog was measured according to the above method and a maximum change in heart rate was calculated.

The subject of series [5] is platelets. As to the kind of experiment: Inhibition of collagen-induced platelets adhesion, washed platelets (Pharmacological Test III). The format is cell-based, man. The conditions noted are these: Platelet, 50 μg/ml collagen, human washed platelets, read-out: Inhibition (%) of collagen-induced platelets adherence. The procedure: A blood was collected from a healthy person with normal platelets function by addition of 0.1% disodium ethylenediaminetetraacetate (EDTA.4Na) and immediately subjected to separation of a platelet rich plasma (PRP). The PRP was washed twice with a Tyrode's buffer solution (50mM TRIS, 0.1% EDTA, Ca (-), Mg (-), 0.14% BSA added, pH=7.4), and suspended in the buffer solution so that the number of platelets in the resulting suspension became 300, 000/ml, to obtain a platelets suspension (EDTA-WP). 4 mg of Type I manufactured by Sigma Co., derived from a bovine skin was dissolved in 0.25 ml of acetic acid (83.5 mM); 8 ml of distilled water was added thereto; an ultrasonic wave was applied to the mixture at 4° C. for 2 minutes; 5 ml of the supernatant liquid was separated as a collagen solution. Each test compound was dissolved in dimethylformamide (DMF) so as to give a concentration of at least […] when possible, to prepare a test compound solution. The change in turbidity of platelets suspension was recorded as a change in transmitted light emitted from a glass cell containing the suspension, using a platelets aggregation tracer manufactured by Nikoh Bioscience K.K., generally used in the test of platelets aggregation function, whereby the adherence of platelets was measured. Incidentally, in recoridng the change in transmitted light, the sensitivity of the recorder was 5 times as high as that used generally. 200 μl of the EDTA-WP was placed in a glass cell exclusively used for the above platelets aggregation tester. Further, 1 μl of the test compound solution was added. The mixture was incubated at room temperature for 5 minutes. Then, the cell was set in the platelets aggregation tracer and was allowed to stand for 1 minute until the temperature became 37° C. Thereafter, about 20 μl (50 μg/ml) of the collagen solution was added, and the adherence of platelets were measured.
The inhibitions (%) of collagen-induced platelets adhesion by each test compound at various concentrations were calculated using the following formula.
Inhibition (%)=[1-(platelets adherence when test compound added)/
(platelets adherence when no test compound added)]×100

T1 sequence (Q14432 whole entry): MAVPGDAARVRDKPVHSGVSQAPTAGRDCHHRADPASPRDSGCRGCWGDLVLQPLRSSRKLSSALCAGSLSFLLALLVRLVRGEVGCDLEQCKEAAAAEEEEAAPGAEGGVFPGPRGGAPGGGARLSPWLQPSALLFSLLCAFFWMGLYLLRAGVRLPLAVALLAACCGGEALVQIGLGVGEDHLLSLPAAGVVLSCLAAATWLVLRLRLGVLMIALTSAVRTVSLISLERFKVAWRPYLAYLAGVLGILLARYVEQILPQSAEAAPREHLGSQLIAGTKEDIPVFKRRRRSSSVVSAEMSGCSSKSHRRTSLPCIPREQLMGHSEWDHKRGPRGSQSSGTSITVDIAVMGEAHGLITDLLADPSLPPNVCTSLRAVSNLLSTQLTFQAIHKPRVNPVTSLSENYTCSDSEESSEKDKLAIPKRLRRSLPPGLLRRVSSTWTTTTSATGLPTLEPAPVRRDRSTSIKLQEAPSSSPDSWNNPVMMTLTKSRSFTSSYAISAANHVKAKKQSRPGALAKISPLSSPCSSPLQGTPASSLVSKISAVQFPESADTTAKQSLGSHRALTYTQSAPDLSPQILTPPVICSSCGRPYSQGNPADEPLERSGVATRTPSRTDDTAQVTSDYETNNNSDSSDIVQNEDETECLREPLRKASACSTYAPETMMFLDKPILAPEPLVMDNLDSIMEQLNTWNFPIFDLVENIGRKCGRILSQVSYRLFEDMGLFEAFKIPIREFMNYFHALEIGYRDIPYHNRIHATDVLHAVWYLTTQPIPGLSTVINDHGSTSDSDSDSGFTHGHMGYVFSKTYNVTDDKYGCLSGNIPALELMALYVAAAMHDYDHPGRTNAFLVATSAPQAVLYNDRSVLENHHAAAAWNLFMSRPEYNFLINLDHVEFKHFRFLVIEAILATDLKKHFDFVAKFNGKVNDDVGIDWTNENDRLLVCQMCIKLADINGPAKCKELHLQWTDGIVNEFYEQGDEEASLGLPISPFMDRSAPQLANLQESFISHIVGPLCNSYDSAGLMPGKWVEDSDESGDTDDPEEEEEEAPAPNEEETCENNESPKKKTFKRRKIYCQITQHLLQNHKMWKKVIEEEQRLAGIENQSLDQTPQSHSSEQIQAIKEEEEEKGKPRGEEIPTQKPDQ

As to `O=c1ccc2cc(OCCCCS(=O)(=O)N(CCN3CCC(O)CC3)Cc3ccccc3)ccc2[nH]1` [Example 89], the IC50 in series [1] is under 0.1 µM; in series [2] (Homo sapiens, Platelet), 7.7 µM; in series [3], 3.8 µM.
As to `CN(C(=S)CCCOc1ccc2[nH]c(=O)ccc2c1)C1CCCCC1` [Example 143], the figures for the IC50 in series [1], in series [2] and in series [3] were 1.44 µM, 3.8 µM and 2.3 µM, respectively.
Turning to `O=c1ccc2cc(OCCCCN(CCN3CCC(O)CC3)c3ccccc3)ccc2[nH]1` [Example 27], the “Maximum change in heart rate” value in series [4] stood at 7 beats/minute. Further, the IC50 in series [2] (Homo sapiens, Platelet) stood at 6.7 µM; in series [3] it was 7.7 µM. For the same compound, the inhibition at 30 µM in series [5] was 40%.
For the compound `O=c1ccc2cc(OCCCCCN(Cc3ccccc3)Cc3ccccn3)ccc2[nH]1` [Example 70], the IC50 in series [1] was under 0.1 µM; in series [2] (Homo sapiens, Platelet) it was 40 µM; in series [3] it was 22 µM.
Regarding `O=c1ccc2cc(OCCCCS(=O)(=O)N(CCN3CCC(O)CC3)CC3CCCCCCC3)ccc2[nH]1` [Example 79], the IC50 is under 0.1 µM in series [1]; 1.3 µM in series [2] (Homo sapiens, Platelet); 2.5 µM in series [3].
For `CC(=O)NCCN(CCCCOc1ccc2[nH]c(=O)ccc2c1)CC1CCCCCCC1` [Example 61], the “Maximum change in heart rate” value in series [4] came out at 17 beats/minute. Also, the IC50 amounted to 4.9 µM in series [2] (Homo sapiens, Platelet) and 6.3 µM in series [3]. Also, the inhibition at 30 µM in series [5] came out at 35%.
Take `O=c1ccc2cc(OCCCCN(CCN3CCC(O)CC3)Cc3ccccc3)ccc2[nH]1` [Example 28]: the “Maximum change in heart rate” value in series [4] was found to be 0 beats/minute. Moreover, the IC50 in series [1] stood at 0.48 µM. In addition, the inhibition at 10 µM in series [5] stood at 48%.
Consider `O=c1ccc2cc(OCCCCS(=O)(=O)N(CCN3CCC(O)CC3)Cc3ccccc3Cl)ccc2[nH]1` [Example 93], for which the IC50 in series [1] was under 0.1 µM; in series [2] (Homo sapiens, Platelet) it was 1.2 µM; in series [3], 2.6 µM.
As to `CCN(CC)CCN(CCCCOc1ccc2[nH]c(=O)ccc2c1)CC1CCCCCC1` [Example 62], the “Maximum change in heart rate” value in series [4] is 2 beats/minute. Further, the IC50 in series [2] (Homo sapiens, Platelet) amounted to 18 µM; in series [3] it was 17 µM. Further, in series [5] (dose 100 μM), the inhibition at 100 µM was determined as 54%.
For the compound `O=c1ccc2cc(OCCCS(=O)(=O)N(CC(O)CO)CC3CCCCC3)ccc2[nH]1` (stereo not shown) [Example 109], the “Maximum change in heart rate” value in series [4] came out at 16 beats/minute. The IC50 in series [2] (Homo sapiens, Platelet) was 4.9 µM; in series [3], 6.3 µM.
Take `O=c1ccc2ccc(OCCCCN(CCN3CCC(O)CC3)CC3CCCCCCC3)cc2[nH]1` [Example 134]: the IC50 in series [1] is 0.49 µM. Besides, the inhibition at 10 µM in series [5] is 45%.
As to `O=c1ccc2cc(OCCCS(=O)(=O)N(CCN3CCC(O)CC3)C3CCCCCCC3)ccc2[nH]1` [Example 85], in series [4], the “Maximum change in heart rate” value came out at 13 beats/minute. For the same compound, the IC50 was under 0.1 µM in series [1]; 2.1 µM in series [2] (Homo sapiens, Platelet); 0.57 µM in series [3]. Moreover, the inhibition at 3 µM in series [5] (dose 3 μM) is 50%.
